Data: patent US10377753B2, “Substituted 4-azaindoles and their use as GluN2B receptor modulators” (Janssen Pharmaceutica NV, priority 2015, dated 2019)
Structures can show the parent of a compound that is named as a salt.

Target: cloned human NR1/NR2B ion channels (Homo sapiens (Human), UniProt Q05586+Q13224)
Experiment: HNR2BC: effects of test articles on cloned human NR1/NR2B ion channels expressed in mammalian cells (FLIPR calcium flux)
Type: cell-based
Settings: cloned human NR1/NR2B ion channels, Table 5
How it was run: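 Compounds were added to dye-loaded cells for 5 min with fluorescence monitored for agonism, followed by co-agonists (glutamate ~EC80, glycine 10 μM saturating) for 5 min. Cells stably expressed inducible human NR1/NR2B, and the buffer was pH 7.4. The FLIPR Ca2+ flux signal was normalized against control wells.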

Sequence of cloned human NR1/NR2B ion channels (Q13224 27-1484, other chains not shown): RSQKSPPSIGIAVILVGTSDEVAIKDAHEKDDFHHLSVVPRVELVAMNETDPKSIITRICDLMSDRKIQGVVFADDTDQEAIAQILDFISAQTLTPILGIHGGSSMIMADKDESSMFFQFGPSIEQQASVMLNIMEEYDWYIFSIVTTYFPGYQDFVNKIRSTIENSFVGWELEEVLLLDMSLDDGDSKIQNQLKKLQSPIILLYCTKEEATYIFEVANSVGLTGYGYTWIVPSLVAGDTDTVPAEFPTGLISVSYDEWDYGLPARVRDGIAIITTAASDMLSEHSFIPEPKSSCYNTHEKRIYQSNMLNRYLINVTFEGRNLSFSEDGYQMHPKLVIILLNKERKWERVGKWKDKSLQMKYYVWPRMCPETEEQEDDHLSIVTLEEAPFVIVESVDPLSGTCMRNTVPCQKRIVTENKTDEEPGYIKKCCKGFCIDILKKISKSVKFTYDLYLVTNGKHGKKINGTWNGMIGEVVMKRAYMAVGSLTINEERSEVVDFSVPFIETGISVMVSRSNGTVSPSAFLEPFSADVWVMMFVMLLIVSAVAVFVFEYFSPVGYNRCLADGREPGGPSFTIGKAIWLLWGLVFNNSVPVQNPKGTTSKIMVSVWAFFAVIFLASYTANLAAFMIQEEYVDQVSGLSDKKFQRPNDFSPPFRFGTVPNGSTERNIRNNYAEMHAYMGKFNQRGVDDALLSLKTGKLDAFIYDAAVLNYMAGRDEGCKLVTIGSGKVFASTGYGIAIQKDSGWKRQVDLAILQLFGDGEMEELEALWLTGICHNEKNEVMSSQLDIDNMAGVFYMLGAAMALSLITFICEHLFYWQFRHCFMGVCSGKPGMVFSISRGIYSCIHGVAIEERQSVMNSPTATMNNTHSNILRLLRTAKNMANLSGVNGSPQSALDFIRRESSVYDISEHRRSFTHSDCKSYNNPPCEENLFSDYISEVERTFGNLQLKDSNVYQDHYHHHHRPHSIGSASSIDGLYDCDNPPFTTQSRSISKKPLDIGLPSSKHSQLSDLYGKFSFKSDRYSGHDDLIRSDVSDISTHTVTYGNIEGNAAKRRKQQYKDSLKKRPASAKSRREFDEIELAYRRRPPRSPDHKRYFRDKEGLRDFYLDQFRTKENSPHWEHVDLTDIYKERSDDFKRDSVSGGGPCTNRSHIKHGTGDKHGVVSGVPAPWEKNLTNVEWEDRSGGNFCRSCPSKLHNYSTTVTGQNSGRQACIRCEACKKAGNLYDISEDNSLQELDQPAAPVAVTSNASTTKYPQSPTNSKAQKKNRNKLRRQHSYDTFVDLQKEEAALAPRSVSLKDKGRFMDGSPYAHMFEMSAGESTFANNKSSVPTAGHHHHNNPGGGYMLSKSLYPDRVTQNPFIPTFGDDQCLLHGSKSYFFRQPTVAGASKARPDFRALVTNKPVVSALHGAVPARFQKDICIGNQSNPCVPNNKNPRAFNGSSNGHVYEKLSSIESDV

SMILES	IC50 [nM]
CN(C)C(=O)Cn1cc(F)c2ncc(-c3cccs3)cc21 [Example 387, 2-[3-Fluoro-6-(2-thienyl)pyrrolo[3,2-b]pyridin-1-yl]-N,N-dimethyl-acetamide]	63.1
CCc1ccc(-c2cnc3ccn(CC(=O)N(C)C)c3c2)s1 [Example 388, 2-[6-(5-Ethyl-2-thienyl)pyrrolo[3,2-b]pyridin-1-yl]-N,N-dimethyl-acetamide trifluoroacetate salt]	794
O=C(Cn1cc(F)c2ncc(-c3cccs3)cc21)N1CCC1 [Example 389, 1-(Azetidin-1-yl)-2-[3-fluoro-6-(2-thienyl)pyrrolo[3,2-b]pyridin-1-yl]ethanone trifluoroacetate salt]	158
Cc1ccc(-c2cnc3c(F)cn(CC(=O)N(C)C)c3c2)s1 [Example 390, 2-[3-Fluoro-6-(5-methyl-2-thienyl)pyrrolo[3,2-b]pyridin-1-yl]-N,N-dimethyl-acetamide]	316
CN(C)C(=O)Cn1ccc2ncc(-c3cc(Cl)cs3)cc21 [Example 391, 2-[6-(4-Chloro-2-thienyl)pyrrolo[3,2-b]pyridin-1-yl]-N,N-dimethyl-acetamide trifluoroacetate salt]	50.1
CCc1ccc(-c2cnc3ccn(CC(=O)N4CCC4)c3c2)s1 [Example 392, 1-(Azetidin-1-yl)-2-[6-(5-ethyl-2-thienyl)pyrrolo[3,2-b]pyridin-1-yl]ethanone trifluoroacetate salt]	63.1
CCc1ccc(-c2cnc3c(F)cn(CC(=O)N(C)C)c3c2)s1 [Example 393, 2-[6-(5-Ethyl-2-thienyl)-3-fluoro-pyrrolo[3,2-b]pyridin-1-yl]-N,N-dimethyl-acetamide]	126
O=C(Cn1ccc2ncc(-c3cc(Cl)cs3)cc21)N1CCC1 [Example 394, 1-(Azetidin-1-yl)-2-[6-(4-chloro-2-thienyl)pyrrolo[3,2-b]pyridin-1-yl]ethanone trifluoroacetate salt]	158
O=C(Cn1cc(F)c2ncc(-c3cccs3)cc21)N1CC(F)C1 [Example 395, 1-(3-Fluoroazetidin-1-yl)-2-[3-fluoro-6-(2-thienyl)pyrrolo[3,2-b]pyridin-1-yl]ethanone trifluoroacetate salt]	50.1
CN(C)C(=O)Cn1cc(F)c2ncc(-c3cc(Cl)cs3)cc21 [Example 396, 2-[6-(4-Chloro-2-thienyl)-3-fluoro-pyrrolo[3,2-b]pyridin-1-yl]-N,N-dimethyl-acetamide]	501
O=C(Cn1cc(F)c2ncc(-c3cc(Cl)cs3)cc21)N1CCC1 [Example 397, 1-(Azetidin-1-yl)-2-[6-(4-chloro-2-thienyl)-3-fluoro-pyrrolo[3,2-b]pyridin-1-yl]ethanone trifluoroacetate salt]	50.1
CCc1ccc(-c2cnc3c(F)cn(CC(=O)N4CC(F)C4)c3c2)s1 [Example 398, 2-[6-(5-Ethyl-2-thienyl)-3-fluoro-pyrrolo[3,2-b]pyridin-1-yl]-1-(3-fluoroazetidin-1-yl)ethanone trifluoroacetate salt]	39.8
O=C(Cn1ccc2ncc(-c3cccs3)cc21)N1CCC1 [Example 399, 1-(Azetidin-1-yl)-2-[6-(2-thienyl)pyrrolo[3,2-b]pyridin-1-yl]ethanone]	158
CN(C)C(=O)Cn1ccc2ncc(-c3cccs3)cc21 [Example 400, N,N-Dimethyl-2-[6-(2-thienyl)pyrrolo[3,2-b]pyridin-1-yl]acetamide]	501
CCc1ccc(-c2cnc3c(F)cn(CC(=O)N4CCC4)c3c2)s1 [Example 401, 1-(Azetidin-1-yl)-2-[6-(5-ethyl-2-thienyl)-3-fluoro-pyrrolo[3,2-b]pyridin-1-yl]ethanone]	631
Cc1ccc(-c2cnc3c(F)cn(CC(=O)N4CC(F)C4)c3c2)s1 [Example 402, 1-(3-Fluoroazetidin-1-yl)-2-[3-fluoro-6-(5-methyl-2-thienyl)pyrrolo[3,2-b]pyridin-1-yl]ethanone trifluoroacetate salt]	251
O=C(Cn1ccc2ncc(-c3sccc3Cl)cc21)N1CCC1 [Example 403, 1-(Azetidin-1-yl)-2-[6-(3-chloro-2-thienyl)pyrrolo[3,2-b]pyridin-1-yl]ethanone]	100
Cc1ncc(-c2cnc3ccn(CC(=O)N4CCC4)c3c2)s1 [Example 404, 1-(Azetidin-1-yl)-2-[6-(2-methylthiazol-5-yl)pyrrolo[3,2-b]pyridin-1-yl]ethanone]	31.6
O=C(Cn1ccc2ncc(-c3cncs3)cc21)N1CCC1 [Example 405, 1-(Azetidin-1-yl)-2-(6-thiazol-5-ylpyrrolo[3,2-b]pyridin-1-yl)ethanone]	10000
Cc1csc(-c2cnc3c(Cl)cn(CC(=O)N4CCC4)c3c2)c1 [Example 407, 1-(Azetidin-1-yl)-2-[3-chloro-6-(4-methyl-2-thienyl)pyrrolo[3,2-b]pyridin-1-yl]ethanone]	6310
CCc1ccc(-c2cnc3c(Cl)cn(CC(=O)N4CCC4)c3c2)s1 [Example 408, 1-(Azetidin-1-yl)-2-[3-chloro-6-(5-ethyl-2-thienyl)pyrrolo[3,2-b]pyridin-1-yl]ethanone]	39.8
O=C(Cn1cc(Cl)c2ncc(-c3cccs3)cc21)N1CCC1 [Example 409, 1-(Azetidin-1-yl)-2-[3-chloro-6-(2-thienyl)pyrrolo[3,2-b]pyridin-1-yl]ethanone]	200
Cc1ccc(-c2cnc3c(Cl)cn(CC(=O)N4CCC4)c3c2)s1 [Example 410, 1-(Azetidin-1-yl)-2-[3-chloro-6-(5-methyl-2-thienyl)pyrrolo[3,2-b]pyridin-1-yl]ethanone]	316
CN(CC(F)(F)F)C(=O)Cn1ccc2ncc(-c3ccc(F)cc3)cc21 [Example 411, 2-[6-(4-Fluorophenyl)pyrrolo[3,2-b]pyridin-1-yl]-N-methyl-N-(2,2,2-trifluoroethyl)acetamide]	25.1
Cc1ccc(-c2cnc3c(Cl)cn(CC(=O)N4CC(F)C4)c3c2)s1 [Example 412, 2-[3-Chloro-6-(5-methyl-2-thienyl)pyrrolo[3,2-b]pyridin-1-yl]-1-(3-fluoroazetidin-1-yl)ethanone]	7940
O=C(Cn1cc(Cl)c2ncc(-c3ccc(Cl)s3)cc21)N1CC(F)C1 [Example 413, 2-[3-Chloro-6-(5-chloro-2-thienyl)pyrrolo[3,2-b]pyridin-1-yl]-1-(3-fluoroazetidin-1-yl)ethanone]	50.1
CN(C)C(=O)Cn1cc(Cl)c2ncc(-c3cc(Cl)cs3)cc21 [Example 414, 2-[3-Chloro-6-(4-chloro-2-thienyl)pyrrolo[3,2-b]pyridin-1-yl]-N,N-dimethyl-acetamide]	39.8
Cc1cc(-c2cnc3ccn(CC(=O)N(C)CC(F)(F)F)c3c2)ccc1F [Example 415, 2-[6-(4-Fluoro-3-methyl-phenyl)pyrrolo[3,2-b]pyridin-1-yl]-N-methyl-N-(2,2,2-trifluoroethyl)acetamide]	63.1

The next molecules have a lower IC50 than those just listed; values first:

IC50 [nM]	SMILES
20	O=C(Cn1ccc2ncc(-c3ccc(Cl)s3)cc21)N1CCC1 [Example 373, 1-(Azetidin-1-yl)-2-[6-(5-chloro-2-thienyl)pyrrolo[3,2-b]pyridin-1-yl]ethanone]
20	O=C(Cn1cc(Cl)c2ncc(-c3ccc(F)c(F)c3F)cc21)N1CC(F)C1 [Example 374, 2-[3-Chloro-6-(2,3,4-trifluorophenyl)pyrrolo[3,2-b]pyridin-1-yl]-1-(3-fluoroazetidin-1-yl)ethanone]
20	CN(C)C(=O)Cn1ccc2ncc(-c3cc(F)cc(F)c3)cc21 [Example 376, 2-[6-(3,5-Difluorophenyl)pyrrolo[3,2-b]pyridin-1-yl]-N,N-dimethyl-acetamide]
20	O=C(Cn1cc(Cl)c2ncc(-c3ccc(F)cc3)cc21)C1CC1 [Example 384, 2-[3-Chloro-6-(4-fluorophenyl)pyrrolo[3,2-b]pyridin-1-yl]-1-cyclopropyl-ethanone]
20	O=C(Cn1ccc2ncc(-c3ccsc3)cc21)N1CCC1 [Example 385, 1-(Azetidin-1-yl)-2-[6-(3-thienyl)pyrrolo[3,2-b]pyridin-1-yl]ethanone trifluoroacetate salt]
15.8	O=C(Cn1ccc2ncc(-c3cc(F)c(F)c(F)c3)cc21)N1CC(F)C1 [Example 371, 1-(3-Fluoroazetidin-1-yl)-2-[6-(3,4,5-trifluorophenyl)pyrrolo[3,2-b]pyridin-1-yl]ethanone]
15.8	O=C(Cn1ccc2ncc(-c3ccc(Cl)s3)cc21)N1CC(F)C1 [Example 372, 2-[6-(5-Chloro-2-thienyl)pyrrolo[3,2-b]pyridin-1-yl]-1-(3-fluoroazetidin-1-yl)ethanone]
15.8	O=C(Cn1cc(Cl)c2ncc(-c3ccc(Cl)s3)cc21)N1CCC1 [Example 381, 1-(Azetidin-1-yl)-2-[3-chloro-6-(5-chloro-2-thienyl)pyrrolo[3,2-b]pyridin-1-yl]ethanone]
15.8	O=C(Cn1cc(F)c2ncc(-c3ccc(F)c(F)c3)cc21)N1CCC1 [Example 382, 1-(Azetidin-1-yl)-2-[6-(3,4-difluorophenyl)-3-fluoro-pyrrolo[3,2-b]pyridin-1-yl]ethanone]
15.8	O=C(Cn1cc(F)c2ncc(-c3cc(F)c(F)c(F)c3)cc21)N1CCC1 [Example 383, 1-(Azetidin-1-yl)-2-[3-fluoro-6-(3,4,5-trifluorophenyl)pyrrolo[3,2-b]pyridin-1-yl]ethanone]
12.6	CN(C)C(=O)Cn1ccc2ncc(-c3cc(F)c(F)c(F)c3)cc21 [Example 375, N,N-Dimethyl-2-[6-(3,4,5-trifluorophenyl)pyrrolo[3,2-b]pyridin-1-yl]acetamide]
10	CN(C)C(=O)Cn1ccc2ncc(-c3cccc(C(F)F)c3)cc21 [Example 377, 2-[6-[3-(Difluoromethyl)phenyl]pyrrolo[3,2-b]pyridin-1-yl]-N,N-dimethyl-acetamide]
10	Cc1ccc(-c2cnc3ccn(CC(=O)N4CCC4)c3c2)s1 [Example 380, 1-(Azetidin-1-yl)-2-[6-(5-methyl-2-thienyl)pyrrolo[3,2-b]pyridin-1-yl]ethanone]
